This passage reports Binding % results from US12134620B2 (ARAXES PHARMA LLC, priority 2018, dated 2024).

For this experiment, the target named is T1, KRAS G12C 1-169, his-tagged protein, GDP-loaded (Homo sapiens, UniProt P01116, G12C).
T1 construct: KRAS G12C 1-169, his-tagged protein, GDP-loaded; His tag
Nature of the experiment: Biochemical assay: covalent modification of KRAS G12C, analysed by mass spectrometry (RapidFire/TOF or Q-Exactive). Format: binding. Particulars: Modification activity, modification percentage from MS peak intensities. As for the experimental part:
Test compounds are prepared as 10 mM stock solutions in DMSO (Fisher cat. #BP-231-100). KRAS G12C 1-169, his-tagged protein, GDP-loaded is diluted to 2 μM or 0.5 μM in buffer (20 mM Hepes, 150 mM NaCl, 1 mM MgCl2). Compounds are tested for activity as follows:
Compounds are diluted to 50× final test concentration in DMSO in 96-well storage plates. Compound stock solutions are vortexed before use and observed carefully for any sign of precipitation. Dilutions are as follow: • For 32 μM final compound concentration, compounds are diluted to 1600 μM (3 μL 10 mM compound stock+15.75 μL DMSO and mixed well by pipetting. • For 8 μM final compound concentration, compounds are diluted to 400 μM (2 μL 10 mM compound stock+48 μL DMSO) and mixed well by pipetting. 49 μL of the stock protein solution is added to each well of a 96-well PCR plate (Fisher cat #1423027). 1 μl of the diluted 50× compounds are added to appropriate wells in the PCR plate using 12-channel pipettor. Reactions are mixed carefully and thoroughly by pipetting up/down with a 200 μL multi-channel pipettor. The plate is sealed well with aluminum plate seal, and protein and compound are allowed to react for a desired amount of time. 5 μL of 2% formic acid (Fisher cat #A117) in de-ionized H2O is then added to each well followed by mixing with a pipette to quench the reaction. The plate is then resealed with aluminum seal and stored frozen on dry ice until analyzed as described below.
The above described assays are analyzed by mass spectrometry according to one of the following two procedures:
The MS instrument is set to positive polarity, 2 GHz resolution, and low mass (1700) mode and allowed to equilibrate for 30 minutes. The instrument is then calibrated, switched to acquisition mode and the appropriate method loaded.
After another 30 minute equilibration time, a blank batch (i.e., buffer) is run to ensure equipment is operating properly. The samples are thawed at 37° C. for 10 minutes, briefly centrifuged, and transfer to the bench top. Wells A1 and H12 are spiked with 1 μL 500 μM internal standard peptide, and the plates centrifuged at 2000×g for 5 minutes. The method is then run and masses of each individual well recorded.
The masses (for which integration data is desired) for each well are pasted into the platemap and exported from the analysis. Masses for the internal standards are exported as well. The data at 50 ppm is extracted for the +19 charge state, and identity of well A1 is assigned using the internal standard spike and integrated. Peak data is exported as a TOF list and the above steps are repeated individually, for the +20, +21, +22, +23, +24, and +25 charge states.
The masses and peak intensities of KRAS G12C protein species are measured using a Dionex RSLCnano system (Thermo Scientific) connected to a Q Exactive Plus mass spectrometer (Thermo Scientific).
20 μL of sample is each loaded onto a Aeris™ 3.6 μm WIDEPORE C4 200 Å, LC Column 50×2.1 mm column maintained at 40° C. at a flow rate of 600 μL/min with 80% Solvent A (0.1% formic acid in H2O) and 20% Solvent B (0.1% formic acid in acetonitrile). The liquid chromatography conditions are 20% solvent B for 1 minute, 20% to 60% solvent B for 1.5 minutes, 60% to 90% solvent for 0.5 minute, 90% solvent B for 0.2 minute, 90% to 20% solvent B for 0.2 minute, and then equilibrated for 1.6 minute before the following sample injection. The flow rate is maintained at 600 μL/min throughout the sample analysis.
The mass spectrometer is operated in profile mode at a resolution of 17500, 5 microscans, using 50 msec max injection time and an AGC target of 1×10^6, and a full mass range from 800-1850 m/z is recorded. The intact protein mode is applied for optimal ion transfer and maximum sensitivity. The ionization method is electrospray ionization, which used a spray voltage of 4 kV, sheath gas flow set to 50 AU, auxiliary gas flow set to 10 AU and sweep gas flow set to 1 AU. […]
Take `C=CC(=O)N1CC2(CCN(c3nc(N4CCCC4)nc(-c4c(C)ccc5[nH]ncc45)c3C#N)C2)C1` [Compound I-1, 4-(2-acryloyl-2,6-diazaspiro[3.4]octan-6-yl)-6-(5-methyl-1H-indazol-4-yl)-2-(pyrrolidin-1-yl)pyrimidine-5-carbonitrile]: the Binding % result is reported as “+++ (+++ indicates binding activity greater than 85%)”.

`C=CC(=O)N1CC2(CCN(c3nc(OC[C@@H]4CCCN4C)nc(-c4c(C)ccc5[nH]ncc45)c3C#N)C2)C1` [Compound I-2, 4-(2-acryloyl-2,6-diazaspiro[3.4]octan-6-yl)-6-(5-methyl-1H-indazol-4-yl)-2-(((S)-1-methylpyrrolidin-2-yl)methoxy)pyrimidine-5-carbonitrile]: the Binding % entry is reported as “+++ (+++ indicates binding activity greater than 85%)”.

On to `C=CC(=O)N1CC2(CCN(c3nc(N4CCOCC4)nc(-c4c(C)ccc5[nH]ncc45)c3C#N)C2)C1` [Compound I-3, 4-(2-acryloyl-2,6-diazaspiro[3.4]octan-6-yl)-6-(5-methyl-1H-indazol-4-yl)-2-morpholinopyrimidine-5-carbonitrile], for which the Binding % result is on record as “+++ (+++ indicates binding activity greater than 85%)”.

Take `C=CC(=O)N1CC2(CCN(c3nc(N4CC(N(C)C)C4)nc(-c4c(C)ccc5[nH]ncc45)c3C#N)C2)C1` [Compound I-4, 4-(2-acryloyl-2,6-diazaspiro[3.4]octan-6-yl)-2-(3-(dimethylamino)azeti-din-1-yl)-6-(5-methyl-1H-indazol-4-yl)pyrimidine-5-carbonitrile]: the Binding % result is listed as “+++ (+++ indicates binding activity greater than 85%)”.

As to `C=CC(=O)N1CC2(CCN(c3nc(OCCCN(C)C)nc(-c4c(C)ccc5[nH]ncc45)c3C#N)C2)C1` [Compound I-5, 4-(2-acryloyl-2,6-diazaspiro[3.4]octan-6-yl)-2-(3-(dimethylamino)pro-poxy)-6-(5-methyl-1H-indazol-4-yl)pyrimidine-5-carbonitrile], the Binding % result is reported as “+++ (+++ indicates binding activity greater than 85%)”.

Consider `C=CC(=O)N1CC2(CCN(c3nc(OC[C@H]4CCCN4C)nc(-c4c(C)ccc5[nH]ncc45)c3C#N)C2)C1` [Compound I-6, 4-(2-acryloyl-2,6-diazaspiro[3.4]octan-6-yl)-6-(5-methyl-1H-indazol-4-yl)-2-(((R)-1-methylpyrrolidin-2-yl)methoxy)pyrimidine-5-carbonitrile], for which the Binding % entry was “+++ (+++ indicates binding activity greater than 85%)”.

`C=CC(=O)N1CC2(CCN(c3nc(OCCc4ccccn4)nc(-c4c(C)ccc5[nH]ncc45)c3C#N)C2)C1` [Compound I-8, 4-(2-acryloyl-2,6-diazaspiro[3.4]octan-6-yl)-6-(5-methyl-1H-indazol-4-yl)-2-(2-(pyridin-2-yl)ethoxy)pyrimidine-5-carbonitrile]: the Binding % result is “+++ (+++ indicates binding activity greater than 85%)”.

In the case of `C=CC(=O)N1CC2(CCN(c3nc(C#N)nc(-c4c(C)ccc5[nH]ncc45)c3C#N)C2)C1` [Compound I-10, 4-(2-acryloyl-2,6-diazaspiro[3.4]octan-6-yl)-6-(5-methyl-1H-indazol-4-yl)pyrimidine-2,5-dicarbonitrile], the Binding % entry is listed as “++ (++ indicates binding activity from 50 to 85%)”.

As for `C=CC(=O)N1CC2(CCN(c3nc(-n4ccnc4)nc(-c4c(C)ccc5[nH]ncc45)c3C#N)C2)C1` [Compound I-11, 4-(2-acryloyl-2,6-diazaspiro[3.4]octan-6-yl)-2-(1H-imidazol-1-yl)-6-(5-methyl-1H-indazol-4-yl)pyrimidine-5-carbonitrile], the Binding % entry is reported as “+++ (+++ indicates binding activity greater than 85%)”.

Regarding `C=CC(=O)N1CC2(CCN(c3nc(OCCN4CCCC4)nc(-c4c(C)ccc5[nH]ncc45)c3C#N)C2)C1` [Compound I-12, 4-(2-acryloyl-2,6-diazaspiro[3.4]octan-6-yl)-6-(5-methyl-1H-indazol-4-yl)-2-(2-(pyrrolidin-1-yl)ethoxy)pyrimidine-5-carbonitrile], the Binding % entry is “++ (++ indicates binding activity from 50 to 85%)”.

In the case of `C=CC(=O)N1CC2(CCN(c3nc(OC[C@@H]4CCCN4C)nc(N4CCCC(O)C4)c3C#N)C2)C1` (stereo partly drawn) [Compound I-13, 4-(2-acryloyl-2,6-diazaspiro[3.4]octan-6-yl)-6-(3-hydroxypiperidin-1-yl)-2-(((S)-1-methylpyrrolidin-2-yl)methoxy)pyrimidine-5-carbonitrile], the Binding % result is “+ (+ indicates binding activity greater than 0% and up to 50%)”.

As to `C=CC(=O)N1CC2(CCN(c3nc(OCCc4ncccn4)nc(-c4c(C)ccc5[nH]ncc45)c3C#N)C2)C1` [Compound I-14, 4-(2-acryloyl-2,6-diazaspiro[3.4]octan-6-yl)-6-(5-methyl-1H-indazol-4-yl)-2-(2-(pyrimidin-2-yl)ethoxy)pyrimidine-5-carbonitrile], the Binding % result is given as “++ (++ indicates binding activity from 50 to 85%)”.

On to `C=CC(=O)N1CC2(CCN(c3nc(OCc4ccccn4)nc(-c4c(C)ccc5[nH]ncc45)c3C#N)C2)C1` [Compound I-15, 4-(2-acryloyl-2,6-diazaspiro[3.4]octan-6-yl)-6-(5-methyl-1H-indazol-4-yl)-2-(pyridin-2-ylmethoxy)pyrimidine-5-carbonitrile], for which the Binding % result is on record as “+++ (+++ indicates binding activity greater than 85%)”.

For `C=CC(=O)N1CC2(CCN(c3nc(OC[C@@H]4CCCN4C)nc(-c4ccccc4C(F)(F)F)c3C#N)C2)C1` [Compound I-16, (S)-4-(2-acryloyl-2,6-diazaspiro[3.4]octan-6-yl)-2-((1-methylpyrrolidin-2-yl)methoxy)-6-(2-(trifluoromethyl)phe-nyl)pyrimidine-5-carbonitrile], the Binding % result was “+ (+ indicates binding activity greater than 0% and up to 50%)”.

With `C=CC(=O)N1CC2(CCN(c3nc(OC[C@@H]4CCCN4C)nc(-c4cccc5c4OC(F)(F)O5)c3C#N)C2)C1` [Compound I-17, (S)-4-(2-acryloyl-2,6-diazaspiro[3.4]octan-6-yl)-6-(2,2-difluorobenzo[d][1,3]dioxol-4-yl)-2-((1-methylpyrrolidin-2-yl)methoxy)pyrimidine-5-carbonitrile], the Binding % result is “+ (+ indicates binding activity greater than 0% and up to 50%)”.

On to `C=CC(=O)N1CC2(CCN(c3nc(OC[C@@H]4CCCN4C)nc(NCc4cccnc4)c3C#N)C2)C1` [Compound I-18, (S)-4-(2-acryloyl-2,6-diazaspiro[3.4]octan-6-yl)-2-((1-methylpyrrolidin-2-yl)methoxy)-6-((pyridin-3-ylmethyl)amino)pyri-midine-5-carbonitrile], for which the Binding % result is “+ (+ indicates binding activity greater than 0% and up to 50%)”.

As to `C=CC(=O)N1CC2(CCN(c3nc(Oc4cnn(C)c4)nc(-c4c(C)ccc5[nH]ncc45)c3C#N)C2)C1` [Compound I-19, 4-(2-acryloyl-2,6-diazaspiro[3.4]octan-6-yl)-6-(5-methyl-1H-indazol-4-yl)-2-((1-methyl-1H-pyrazol-4-yl)oxy)pyrimidine-5-carbonitrile], the Binding % entry is “++ (++ indicates binding activity from 50 to 85%)”.

In the case of `C=CC(=O)N1CC2(CCN(c3nc(OCCN4CCCC4=O)nc(-c4c(C)ccc5[nH]ncc45)c3C#N)C2)C1` [Compound I-20, 4-(2-acryloyl-2,6-diazaspiro[3.4]octan-6-yl)-6-(5-methyl-1H-indazol-4-yl)-2-(2-(2-oxopyrrolidin-1-yl)ethoxy)pyrimidine-5-carbonitrile], the Binding % entry is recorded as “++ (++ indicates binding activity from 50 to 85%)”.
